Measured values published in patent US9873709B2 (priority 2013, dated 2018).
Structures can show the parent of a compound that is named as a salt. Where two headings read alike, the source gives them in different places.

Assays:
[1] = target: T1, isolated recombinant JAK2 kinase domain (Homo sapiens (Human), UniProt O60674); assay: biochemical
[2] = tested on: JAK1-dependent STAT6 phosphorylation downstream of IL-13 stimulation in TF-1 human erythroleukemia cells; assay: cells; details: TF-1, read-out: IL-13-pSTAT6 IC50
[3] = target: T1, isolated recombinant JAK2 kinase domain; details: read-out: JAK2 Ki
[4] = tested on: JAK1-dependent STAT6 phosphorylation downstream of IL-13 stimulation in BEAS-2B human bronchial epithelial cells; assay: cells; details: read-out: IL13-pSTAT6 BEASB2B IC50
[5] = isolated recombinant JAK2 kinase domain, 25 μM ATP

T1 sequence (O60674 849-1124): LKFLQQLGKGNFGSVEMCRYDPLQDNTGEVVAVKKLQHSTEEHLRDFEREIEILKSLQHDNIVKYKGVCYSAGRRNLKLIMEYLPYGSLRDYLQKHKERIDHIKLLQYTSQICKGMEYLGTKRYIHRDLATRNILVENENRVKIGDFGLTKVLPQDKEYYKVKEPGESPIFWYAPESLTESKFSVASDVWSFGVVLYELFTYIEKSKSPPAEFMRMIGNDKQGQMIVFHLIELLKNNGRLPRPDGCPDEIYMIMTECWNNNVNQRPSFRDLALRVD

Row | Ki [1] | IC50 [2] | Ki [3, 5] | Compound | IC50 [4] | Ki [3]
1 | 63.2 nM |  |  | CC(=O)NC1CCN(c2cccn3nc(Nc4ccc(C(=O)N(C)C5CCN(C)CC5)cc4)nc23)CC1 [Example 1-9, 4-[[8-(4-acetamido-1-piperidyl)-[1,2,4]triazolo[1,5-a]pyridin-2-yl]amino]-N-methyl-N-(1-methyl-4-piperidyl)benzamide; hydrochloride] |  | 
2 | 74.7 nM | > 10000 nM |  | CC(=O)N1CCN(c2cccn3nc(Nc4ccc(C(=O)N(C)C5CCN(C)CC5)cc4)nc23)CC1 [Example 1-10, 4-[[8-(4-acetylpiperazin-1-yl)-[1,2,4]triazolo[1,5-a]pyridin-2-yl]amino]-N-methyl-N-(1-methyl-4-piperidyl)benzamide] |  | 
3 | 6.28 nM | 235 nM |  | CN1CCC(N(C)C(=O)c2ccc(Nc3nc4c(N5CCC(C#N)CC5)cccn4n3)cc2)CC1 [Example 1-11, 4-[[8-(4-cyano-1-piperidyl)-[1,2,4]triazolo[1,5-a]pyridin-2-yl]amino]-N-methyl-N-(1-methyl-4-piperidyl)benzamide] |  | 
4 | 77.5 nM | 3400 nM |  | CN1CCC(N(C)C(=O)c2ccc(Nc3nc4c(N5CCCCC5)cccn4n3)cc2)CC1 [Example 1-12, N-methyl-N-(1-methyl-4-piperidyl)-4-[[8-(1-piperidyl)-[1,2,4]triazolo[1,5-a]pyridin-2-yl]amino]benzamide; dihydrochloride] |  | 
5 | 13.1 nM | 494 nM |  | CN1CCC(N(C)C(=O)c2ccc(Nc3nc4c(N5CCN(c6ccccc6)CC5)cccn4n3)cc2)CC1 [Example 1-13, N-methyl-N-(1-methyl-4-piperidyl)-4-[[8-(4-phenylpiperazin-1-yl)-[1,2,4]triazolo[1,5-a]pyridin-2-yl]amino]benzamide] |  | 
6 | 32 nM |  |  | CN1CCC(N(C)C(=O)c2ccc(Nc3nc4c(N5CCC(O)(c6cccnc6)CC5)cccn4n3)cc2)CC1 [Example 1-19, 4-[[8-[4-hydroxy-4-(3-pyridyl)-1-piperidyl]-[1,2,4]triazolo[1,5-a]pyridin-2-yl]amino]-N-methyl-N-(1-methyl-4-piperidyl)benzamide] |  | 
7 | 47.4 nM |  |  | CN1CCC(N(C)C(=O)c2ccc(Nc3nc4c(N5CCC(C(C)(C)O)CC5)cccn4n3)cc2)CC1 [Example 1-29, 4-[[8-[4-(1-hydroxy-1-methyl-ethyl)-1-piperidyl]-[1,2,4]triazolo[1,5-a]pyridin-2-yl]amino]-N-methyl-N-(1-methyl-4-piperidyl)benzamide] |  | 
8 | 6.7 nM | 76.3 nM |  | CN1CCC(N(C)C(=O)c2ccc(Nc3nc4c(N5CCC(O)(c6ccc(F)cc6)CC5)cccn4n3)cc2)CC1 [Example 1-37, 4-[[8-[4-(4-fluorophenyl)-4-hydroxy-1-piperidyl]-[1,2,4]triazolo[1,5-a]pyridin-2-yl]amino]-N-methyl-N-(1-methyl-4-piperidyl)benzamide] |  | 
9 | 5.59 nM | 152 nM |  | CC(C)c1ccc(C2(O)CCN(c3cccn4nc(Nc5ccc(C(=O)N(C)C6CCN(C)CC6)cc5)nc34)CC2)cc1 [Example 1-38, 4-[[8-[4-hydroxy-4-(4-isopropylphenyl)-1-piperidyl]-[1,2,4]triazolo[1,5-a]pyridin-2-yl]amino]-N-methyl-N-(1-methyl-4-piperidyl)benzamide] |  | 
10 |  | 15.9 nM | 0.2 nM | CN1CCC(N(C)C(=O)c2ccc(Nc3nc4c(N5CCC(CC#N)(c6ccccc6)CC5)cccn4n3)cc2)CC1 [Example 1-41, 4-[[8-[4-(cyanomethyl)-4-phenyl-1-piperidyl]-[1,2,4]triazolo[1,5-a]pyridin-2-yl]amino]-N-methyl-N-(1-methyl-4-piperidyl)benzamide] | 42 nM | 
11 |  |  | 7.84 nM | CN1CCC(N(C)C(=O)c2ccc(Nc3nc4c(N5CCC(O)(c6ccccc6)CC5)cccn4n3)cc2)CC1 [Example 1-43, 4-[[8-(4-hydroxy-4-phenyl-1-piperidyl)-[1,2,4]triazolo[1,5-a]pyridin-2-yl]amino]-N-methyl-N-(1-methyl-4-piperidyl)benzamide] | 968 nM | 
12 |  | 16.4 nM | 0.63 nM | O=C(c1ccc(Nc2nc3c(N4CCC(O)(c5ccc(Cl)cc5)CC4)cccn3n2)cc1)N1CCC(N2CCOCC2)CC1 [Example 1-125, [4-[[8-[4-(4-chlorophenyl)-4-hydroxy-1-piperidyl]-[1,2,4]triazolo[1,5-a]pyridin-2-yl]amino]phenyl]-(4-morpholino-1-piperidyl)methanone] | 42.8 nM | 
13 | 0.92 nM | 189 nM |  | NCCNC(=O)c1ccc(Nc2nc3c(N4CCC(O)(c5ccc(Cl)cc5)CC4)cccn3n2)cc1 [Example 1-175, N-(2-aminoethyl)-4-[[8-[4-(4-chlorophenyl)-4-hydroxy-1-piperidyl]-[1,2,4]triazolo[1,5-a]pyridin-2-yl]amino]benzamide] |  | 
14 | 1.51 nM | 23.2 nM |  | O=C(c1ccc(Nc2nc3c(N4CCC(O)(c5ccc(Cl)cc5)CC4)cccn3n2)cc1)N1CCNCC1 [Example 1-177, [4-[[8-[4-(4-chlorophenyl)-4-hydroxy-1-piperidyl]-[1,2,4]triazolo[1,5-a]pyridin-2-yl]amino]phenyl]-piperazin-1-yl-methanone] |  | 
15 |  |  | 1.29 nM | CO/N=C/C1(c2ccc(Cl)cc2)CCN(c2cccn3nc(Nc4ccc(C(=O)N(C)C5CCN(C)CC5)cc4)nc23)CC1 [Example 1-250] | 732 nM | 
16 |  |  |  | CSc1ccc(C2(CO)CCN(c3cccn4nc(Nc5ccc(C(=O)N(C)C6CCN(C)CC6)cc5)nc34)CC2)cc1 [Example 1-251, 4-([8-[4-(hydroxymethyl)-4-[4-(methylsulfanyl)phenyl]piperidin-1-yl]-[1,2,4]triazolo[1,5-a]pyridin-2-yl]amino)-N-methyl-N-(1-methylpiperidin-4-yl)benzamide] | 56.6 nM | 0.41 nM
17 |  |  | 0.5 nM | CC(O)C1(c2ccc(Cl)cc2)CCN(c2cccn3nc(Nc4ccc(C(=O)N(C)C5CCN(C)CC5)cc4)nc23)CC1 (stereo not drawn) [Example 1-252, 4-[[8-[4-(4-chlorophenyl)-4-(1-hydroxyethyl)-1-piperidyl]-[1,2,4]triazolo[1,5-a]pyridin-2-yl]amino]-N-methyl-N-(1-methyl-4-piperidyl)benzamide] | 90.2 nM | 
18 |  | 89.9 nM | 0.39 nM | CCOC(=O)CC1(c2ccc(Cl)cc2)CCN(c2cccn3nc(Nc4ccc(C(=O)N(C)C5CCN(C)CC5)cc4)nc23)CC1 [Example 1-254] | 661 nM | 
19 |  | 56.3 nM | 0.69 nM | CN1CCC(N(C)C(=O)c2ccc(Nc3nc4c(N5CCC(CC(F)F)(c6ccc(Cl)cc6)CC5)cccn4n3)cc2)CC1 [Example 1-256, 4-([8-[4-(4-chlorophenyl)-4-(2,2-difluoroethyl)piperidin-1-yl]-[1,2,4]triazolo[1,5-a]pyridin-2-yl]amino)-N-methyl-N-(1-methylpiperidin-4-yl)benzamide] | 426 nM | 
20 |  |  | 0.57 nM | CN1CCC(N(C)C(=O)c2ccc(Nc3nc4c(N5CCC(CN)(c6ccc(Cl)cc6)CC5)cccn4n3)cc2)CC1 [Example 1-265, 4-([8-[4-(aminomethyl)-4-(4-chlorophenyl)piperidin-1-yl]-[1,2,4]triazolo[1,5-a]-pyridin-2-yl]amino)-N-methyl-N-(1-methylpiperidin-4-yl)benzamide] | 94.8 nM | 
21 |  |  |  | CN1CCC(N(C)C(=O)c2ccc(Nc3nc4c(N5CCC(CO)(c6ccc(C(F)F)cc6)CC5)cccn4n3)cc2)CC1 [Example 1-267, 4-[(8-[4-[4-(difluoromethyl)phenyl]-4-(hydroxymethyl)piperidin-1-yl]-[1,2,4]triazolo[1,5-a]pyridin-2-yl)amino]-N-methyl-N-(1-methylpiperidin-4-yl)benzamide] | 32.4 nM | 0.25 nM
22 |  |  | 0.38 nM | CC(=O)NCC1(c2ccc(Cl)cc2)CCN(c2cccn3nc(Nc4ccc(C(=O)N(C)C5CCN(C)CC5)cc4)nc23)CC1 [Example 1-268, 4-([8-[4-(4-chlorophenyl)-4-(acetamidomethyl)piperidin-1-yl]-[1,2,4]triazolo[1,5-a]pyridin-2-yl]amino)-N-methyl-N-(1-methylpiperidin-4-yl)benzamide] | 56.2 nM | 
23 |  | 7.9 nM | 0.17 nM | CN1CCCC12CN(C(=O)c1ccc(Nc3nc4c(N5CCC(CO)(c6ccc(Cl)cc6)CC5)cccn4n3)cc1)C2 [Example 1-274, [4-[[8-[4-(4-chlorophenyl)-4-(hydroxymethyl)-1-piperidyl]-[1,2,4]triazolo[1,5-a]pyridin-2-yl]amino]phenyl]-(5-methyl-2,5-diazaspiro[3.4]octan-2-yl)methanone] | 28.9 nM | 
24 |  |  | 0.3 nM | COC(=O)CCN1CCN(C(=O)Cn2cc(Nc3nc4c(N5CCC(CO)(c6ccc(Cl)cc6)CC5)cccn4n3)cn2)CC1 [Example 1-290, Methyl 3-(4-[2-[4-([8-[4-(4-chlorophenyl)-4-(hydroxymethyl)piperidin-1-yl]-[1,2,4]triazolo[1,5-a]pyridin-2-yl]amino)-1H-pyrazol-1-yl]acetyl]piperazin-1-yl)propanoate] | 5.9 nM | 
25 | 18.5 nM |  |  | CN1CCC(N(C)C(=O)c2ccc(Nc3nc4c(N5C[C@@H]6C[C@](O)(c7ccccc7)C[C@@H]6C5)cccn4n3)cc2)CC1 [Example 1-292] |  | 

Row | Compound | Ki [1] | IC50 [2] | Ki [3, 5] | IC50 [4] | Ki [3]
26 | CN1CCC(N(C)C(=O)c2ccc(Nc3nc4c(N5CCC(CCC#N)(c6ccc(Cl)cc6)CC5)cccn4n3)cc2)CC1 [Example 1-247, 4-{8-[4-(4-Chloro-phenyl)-4-(2-cyano-ethyl)-piperidin-1-yl]-1,8a-dihydro[1,2,4]triazolo[1,5-a]pyridine-2-ylamino}-N-methyl-N-(1-methyl-piperidin-4-yl)-benzamide] |  | 18.4 nM | 0.33 nM | 115 nM | 
